Key:
[1] = system: PSA-peptide tetramer+CD8+ cells; assay: PSA-peptide-HLA-A2 tetramer analysis of PBMC from vaccinated patients; type: in vivo, human; details: out of 28 patients (50%), week 26 and/or week 52
[2] = system: DTH-derived T-cells; assay: Cytokine bead array (CBA) of DTH-derived T-cells cultured with peptide-pulsed T2 cells; type: cell-based, human
Description: Out-growth of T-cells was observed within 3 days. On day 4, 500 μl of the spent medium was aspirated and replenished with fresh medium plus IL-2 and cultured further for a total of 6-8 days, until the culture wells became confluent. […] Each cycle of stimulation was 7±1 days. Cytokines released into the culture supernatant, including IFN-γ, TNF-α, IL-4, IL-6 and IL-10, were measured concurrently by cytokine bead array (CBA) analysis (BD Biosciences, San Diego, Calif.). The antigen presenting cell line, T2 (ATCC, Manassas, Va.) was used as a stimulator and was pulsed with 20 μg/ml of PSA-peptide or control HLA-A2 binding peptide, HIV-RT476-484 or diluent alone (0.4% volume by volume). T2 cells (25,000/well) were cultured with DTH-derived T-cells (100,000/well) in complete medium containing 30 U/ml of IL-2 in a total volume of 1 ml per well in 48-well plates. […] Cells were incubated at 37° C. for 24 hours in 5% CO2 atmosphere. Supernatants were harvested and stored in sterile vials at −80° C. At the time of assay, samples were thawed and cytokines were measured using a CBA kit as per the manufacturer's protocol with a FACSCalibur flow cytometer (Becton Dickinson, Mountain View, Calif.).

[3] = DTH skin testing with PSA-peptide; type: in vivo, human
Description: A total of 28 patients were vaccinated with PSA-peptide at three time points, i.e., weeks 1, 4 and 10 and DTH skin testing was performed on weeks 4, 14, 26 and 52.

[4] = system: T2 cells; assay: Chromium release assay (CRA), 4 hour; type: cell-based, human
Description: Specific cytolytic activity was analyzed by standard 4 hour CRA as previously described (Xue et al., (1997) Prostate 30:73). […] Supernatants recovered from CRA were assayed for gamma emission using a Top-count NXT scintillation counter (Packard, Meriden, Conn.) and the percent specific lysis was calculated as previously described (Xue et al., (1997) Prostate 30:73).

[5] = 6 out of 7 patients, after 1-3 cycles in vitro stimulation with PSA-peptide
[6] = four patients, after 1-3 cycles in vitro stimulation

## KLQCVDLHV (listed as Homo sapiens) [PSA-peptide]
[1]
  patients who developed ≧4 fold increases in CD8+ PSA-peptide specific tetramer cells: 14 patients
[2]; [5]
  specific IFN-γ responses, median: 163 pg/mL
  specific IFN-γ responses, range over patients: 85 to 1030 pg/mL
[2]; [6]
  specific levels of IL-4, range over patients: 18 to 486 pg/mL
  specific levels of TNF-α, median: 38 pg/mL
  specific levels of TNF-α, range over patients: 23 to 96 pg/mL
[2]; one patient (UPIN 49)
  IL-6 expression: Non-specific expression
[2]; out of 7 patients
  patients whose DTH-derived T-cells showed specific IFN-γ responses: 6 patients
[2]; patient UPIN55, cycle 0, without peptide priming in vitro
  cytokine responses against T2 cells pulsed with PSA-peptide compared to HIV-RT476-484 or no peptide: specific cytokine responses
[3]; 1 to 20 μg peptide, responding patients
  DTH induration with increasing doses of peptide: increasing level of DTH induration
[3]; of 28 patients (fifty percent), DTH testing weeks 4, 14, 26, 52
  patients who developed positive DTH responses to PSA-peptide over time: 14 patients
[4]; 4 patients, 1-4 cycles in vitro stimulation
  lysis of PSA-peptide-pulsed T2 cells by sorted CD4−CD8+ T-cells, compared to HIV-RT476-484 or no peptide: peptide-specific lysis
[4]; patient UPIN40
  cytolytic activity of induced T-cells: modest cytolytic activity
[4]; patients UPIN45, UPIN 55, UPIN 49
  cytolytic activity of induced T-cells: strongly cytolytic
